According to patent US8354414B2, “Substituted bicyclic pyrimidines” (Cephalon, Inc, priority 2006, dated 2013):
Like-named read-outs stand apart in the source and are kept apart here.

Assays:
CDK5/GST-p25 = molecular target: T1, CDK5/GST-p25 (Homo sapiens, UniProt Q00535); test: Inhibition of CDK5/GST-p25 kinase activity (ELISA with time-resolved fluorescence readout); assay type: biochemical; details: class symbols
T1 construct: The final construct, encoding for full-length human CDK5; made in house; host or cells: Sf21 insect cells (baculovirus co-infection)
Procedure, shortened: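 Sf21-coexpressed full-length human CDK5 with GST-p25 (p35 aa 108-307), glutathione-purified, at 2 ng/ml was reacted for 20 min at 37 °C on plate-coated GST-Rb(773-928). Buffer was 20 mM HEPES pH 7.2, 10 µM ATP, 10 mM MgCl2 and 2.5% DMSO. Phospho-Rb Ser-780 was detected by Eu-labelled antibody TRF, and IC50 curves were fitted.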

His6-GSK-3β = molecular target: T2, His6-GSK-3β (Homo sapiens, UniProt P49841); test: Inhibition of His6-GSK-3β kinase activity (ELISA-based format, time-resolved fluorescence readout); assay type: biochemical; details: read-out: GSK3β IC50
T2 construct: made in house; host or cells: Sf21 insect cells (baculovirus)
Procedure, shortened: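 N-terminal His6-tagged full-length human GSK-3β (aa 2-419) expressed in Sf21 cells, 200 ng/ml, phosphorylating plate-coated GST-Rb with 20 μM ATP in pH 7.2 HEPES buffer, 30 min at 37° C. Phospho-Rb (Ser-780) detected by antibody plus Eu-labelled secondary, time-resolved fluorescence; IC50 from curves.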

T1 sequence (Q00535 whole entry): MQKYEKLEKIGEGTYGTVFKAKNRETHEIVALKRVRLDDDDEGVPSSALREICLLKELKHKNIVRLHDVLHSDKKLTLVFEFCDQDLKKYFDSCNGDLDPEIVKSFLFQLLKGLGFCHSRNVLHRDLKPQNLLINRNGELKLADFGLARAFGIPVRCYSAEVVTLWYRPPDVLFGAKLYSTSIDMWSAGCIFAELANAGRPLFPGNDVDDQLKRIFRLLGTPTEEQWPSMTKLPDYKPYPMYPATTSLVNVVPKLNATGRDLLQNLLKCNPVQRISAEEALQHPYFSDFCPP
T1 sequence (Q15078 108-307 partner limits assumed): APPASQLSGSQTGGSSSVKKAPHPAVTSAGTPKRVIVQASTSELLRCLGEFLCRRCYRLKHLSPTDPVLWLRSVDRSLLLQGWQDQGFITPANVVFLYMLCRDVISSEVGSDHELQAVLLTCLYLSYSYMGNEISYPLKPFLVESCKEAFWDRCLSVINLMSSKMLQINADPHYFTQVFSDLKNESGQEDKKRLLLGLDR
T2 sequence (P49841 2-419): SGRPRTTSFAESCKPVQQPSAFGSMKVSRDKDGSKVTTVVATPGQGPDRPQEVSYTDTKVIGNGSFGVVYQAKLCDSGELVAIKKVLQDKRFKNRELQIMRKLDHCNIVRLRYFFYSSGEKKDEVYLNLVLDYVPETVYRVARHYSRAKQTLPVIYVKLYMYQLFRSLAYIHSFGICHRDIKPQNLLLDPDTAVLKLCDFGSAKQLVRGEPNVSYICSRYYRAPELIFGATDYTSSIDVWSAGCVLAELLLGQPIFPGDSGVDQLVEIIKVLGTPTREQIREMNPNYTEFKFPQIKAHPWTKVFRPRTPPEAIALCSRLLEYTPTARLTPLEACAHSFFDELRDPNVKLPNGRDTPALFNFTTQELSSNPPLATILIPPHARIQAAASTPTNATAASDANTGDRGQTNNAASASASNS

| Compound | melting point | IC50 (CDK5/GST-p25) [nM] | IC50 (His6-GSK-3β; class symbols) [nM] | IC50 (His6-GSK-3β; numeric bounds) [nM] |
| --- | --- | --- | --- | --- |
| O=C1Nc2ccc(C(F)(F)F)cc2C1c1ncnc2nn(C3CCCCC3)cc12 (stereo not drawn) [Example 53, 3-(2-Cyclohexyl-2H-pyrazolo [3,4-d]pyrimidin-4-yl)-5-trifluoromethyl-1,3-dihydro-indol-2-one] | > 300 °C | > 10000 | 300 to 3000 |  |
| CCOCCn1cc2c(C3C(=O)Nc4ccc(Cl)cc43)nc(NC[C@@H](C)O)nc2n1 (stereo partly drawn) [Example 218, 5-Chloro-3-[2-(2-ethoxy-ethyl)-6-((R)-2-hydroxy-propylamino)-2H-pyrazolo[3,4-d]pyrimidin-4-yl]-1,3-dihydro-indol-2-one] | > 300 °C | < 300 | < 300 |  |
| CCCn1cc2c(C3C(=O)Nc4ccc(Br)cc43)nc(NCCc3ccccn3)nc2n1 (stereo not drawn) [Example 191, 5-Bromo-3-[2-propyl-6-(2-pyridin-2-yl-ethylamino)-2H-pyrazolo [3,4-d]pyrimidin-4-yl]-1,3-dihydro-indol-2-one] | 283 to 291 °C | < 300 | < 300 |  |
| COCCn1cc2c(C3C(=O)Nc4ccc(Br)cc43)nc(NCCCN(C)C)nc2n1 (stereo not drawn) [Example 233, 5-Bromo-3-[6-(3-dimethylamino-propylamino)-2-(2-methoxy-ethyl)-2H-pyrazolo [3,4-d]pyrimidin-4-yl]-1,3-dihydro-indol-2-one] | 297 to 298 °C | < 300 | < 300 |  |
| CCCn1cc2c(C3C(=O)Nc4ccc(Br)cc43)nc(NC[C@H](C)O)nc2n1 (stereo partly drawn) [Example 194, 5-Bromo-3-[6-((S)-2-hydroxy-propylamino)-2-propyl-2H-pyrazolo[3,4-d]pyrimidin-4-yl]-1,3-dihydro-indol-2-one] | 322 to 326 °C | < 300 | < 300 |  |
| O=C1Nc2ccc(C(F)(F)F)cc2C1c1nc(Cl)nc2nn(C3CCCC3)cc12 (stereo not drawn) [Example 153, 3-(6-Chloro-2-cyclopentyl-2H-pyrazolo [3,4-d]pyrimidin-4-yl)-5-trifluoromethyl-1,3-dihydro-indol-2-one] | > 300 °C | > 10000 |  | > 3000 |
| O=C1Nc2ccc(Cl)cc2C1c1ncnc2c1cnn2C1CCCCC1 (stereo not drawn) [Example 74, 5-Chloro-3-(1-Cyclohexyl-1H-pyrazolo[3,4-d]pyrimidin-4-yl)-1,3-dihydro-indol-2-one] | 300 to 305 °C | > 10000 | > 10000 |  |
| O=C1Nc2ccc(C(F)(F)F)cc2C1c1nc(NCCc2cccnc2)nc2nn(C3CCCC3)cc12 (stereo not drawn) [Example 160, 3-[2-cyclopentyl-6-(2-pyridin-3-yl-ethylamino)-2H-pyrazolo[3,4-d]pyrimidin-4-yl]-5-trifluoromethyl-1,3-dihydro-indol-2-one] | 278 to 280 °C | > 10000 | < 300 |  |
| CC(C)Nc1nc(C2C(=O)Nc3ccccc32)c2cn(C3CCCC3)nc2n1 (stereo not drawn) [Example 245, 3-(2-Cyclopentyl-6-isopropylamino-2H-pyrazolo[3,4-d]pyrimidin-4-yl)-1,3-dihydro-indol-2-one] | 303 to 305 °C | > 10000 |  | > 3000 |
| N#Cc1ccc2c(c1)C(c1ncnc3[nH]ncc13)C(=O)N2 (stereo not drawn) [Example 109, 2-Oxo-3-(1H-pyrazolo[3,4-d]pyrimidin-4-yl)-2,3-dihydro-1H-indole-5-carbonitrile] | > 300 °C (dec.) | < 300 | < 300 |  |
| N#Cc1cccc2c1NC(=O)C2c1ncnc2c1cnn2C1CCCC1 (stereo not drawn) [Example 64, 3-(1-Cyclopentyl-1H-pyrazolo [3,4-d]pyrimidin-4-yl)-2-oxo-2,3-dihydro-1H-indole-7-carbonitrile] | 327 to 332 °C | > 10000 | > 10000 |  |
| COCCn1cc2c(C3C(=O)Nc4ccc(Br)cc43)nc(NC[C@H](C)O)nc2n1 (stereo partly drawn) [Example 230, 5-Bromo-3-[6((S)-2-hydroxy-propylamino)-2-(2-methoxy-ethyl)-2H-pyrazolo [3,4-d]pyrimidin-4-yl]-1,3-dihydro-indol-2-one] | > 300 °C | < 300 | < 300 |  |
